We go through 2 substances from patent EP0165492B1, “Process for manufacturing preparations promoting wound healing, and such preparations” (BERLIN-CHEMIE Aktiengesellschaft, priority 1984, dated 1992).

Experiment [1] concerns Endothelzellen. The following applies: versus rats treated with isotonic saline (= 100 %); treatment as in Example 1.
Method: Unter die Rückenhaut von 2 Monate alten Ratten mit einem Körpergewicht von 220 bis 270 g werden Polyvinylringe mit einem Basisdurchmesser von 19 mm unter sterilen Kautelen implantiert (Test nach RUDAS, modifiziert nach BECK, WIEGERS-HAUSEN und JUNG, Acta bio. med. Germ. 13, (1964)).
Der Ring liegt auf der Fascis der Rückenmuskulatur. Am Operationstag werden je 1,0 ml sterile, isotone Kochsalzlösung (Kontrolle) bzw. die gleiche Menge an Kochsalzlösung mit den darin enthaltenen Wirkstoffen appliziert. Die Wunde der Rückenhaut über dem Ring wird danach verschlossen. Am 2. bzw. am 2., 4. und 6. Tag post operationem (p. op.) erfolgen nochmalige Injektionen durch die Haut in den Ring, wobei jeweils 0,2 ml sterile, isotone Kochsalzlösung mit jeweils 20 % der am Operationstag gegebenen Wirkstoffmenge appliziert werden. Im Fall der Kontrolle erfolgt eine Injektion von 0,2 ml Kochsalzlösung ohne Wirkstoff.
Als Kontrolltiere dienten mit isotoner Kochsalzlösung behandelte Ratten, deren Zählwerte gleich 100 % gesetzt wurden. […] Das Vorgehen der Behandlung entspricht dem Beispiel 1.
Experiment [2] relates to Kapillaren. The note with it: conclusion from morphometry (Tables 11 and 12); controls = 100 %. An excerpt: Mit Hilfe des Punktzählverfahrens (BUNTROCK et al: Exper. Pathol. 21 (1982) 62-67) wurden die prozentualen Volumenanteile der Kapillaren (VVCAP), unterteilt nach Endothelzellen (VVEC), Endothelzellkerne (VVNEC), Endothelsellzytoplasma (VVCYT) einerseits und Kapillarlumen (VVCAPL) andererseits bestimmt. Die Kontrollen wurden wiederum mit 100 % festgelegt.
Die Ergebnisse sind in der Tabelle 12 dargestellt.

The subject of experiment [3] is experimentell gesetzte Wunden. The following applies: intraperitoneal, 20 mg/kg Ratte; cited from earlier work.
The subject of experiment [4] is durch Zahnextraktion entstandene Wunden. The note with it: local application (Salbe, Lutschtabletten); cited from earlier work.

Consider “N-4-Nitrobenzylocarbonyl-lysyl-Prolin-Hydrochlorid [Lys[Z(NO2)]-Pro·HCl]”, for which, in experiment [1], the “Anzahl der Endothelzellkerne der Kapillaren” value is “signifikante Zunahme”. Also, the “Angiogenese fördernde Wirkung” value in experiment [2] is “Angiogenese fördernde Wirkung”.
Turning to ß-Alanyl-L-Histidin [L-Carnosin], the Wundheilung result in experiment [3] and in experiment [4] was “günstig beeinflussen” each time.
